Laboratory results taken from patent US10775394B2, “Immunoassay for phenethylamines of the 2C and DO sub-families” (Randox Laboratories Limited, priority 2013, dated 2020).
Structures can show the parent of a compound that is named as a salt.

Assays:
[1] = system: Randox MDPV kit; settings: compared to 100% for (±)-MDPV, Swortwood et al 2013, Table 7; cited from earlier work
[2] = system: Randox mephedrone/methcathinone kit; settings: compared to 100% for (±)-mephedrone, Swortwood et al 2013, Table 7; cited from earlier work
[3] = system: AxSYM amphetamine/methamphetamine II assay; settings: even when tested at 5,000 ng/mL, Petrie et al 2013; cited from earlier work
[4] = system: CEDIA amphetamine/ecstasy immunoassay; settings: CEDIA assay; tested at 5,000 ng/ml; Petrie et al 2013; cited from earlier work
[5] = system: DO antibody 2 (IgG fraction of antiserum raised to DOB-BSA); experiment: Competitive microtitre plate ELISA, DO antibody 2 (antiserum raised to DOB-BSA); type: binding; settings: for % Cross reactivity: DO antibody 2, relative to DOB = 100
Method: The wells of an enhanced binding 96 well polystyrene microtitre plate were coated with IgG fraction of antiserum raised to DOB-BSA, diluted in 10 mM Tris, pH8.5 (125 μl/well). The appropriate antibody coating dilution was determined using standard ELISA checkerboard techniques. The plate was incubated for 2 hours at 37° C., washed 4 times over 10 minutes with Tris buffered saline containing Tween 20 (TBST) and tapped dry. Standard solutions of DOB were prepared in TBST at 0, 0.625, 1.25, 2.5, 5, 10, 20 & 40 ng/ml, and 50 μl of each was added to the appropriate wells. 75 μl of conjugate (Example 22) diluted in Tris buffer (pH 7.2) containing EDTA, D-mannitol, sucrose, thimerosal and BSA, was added to each of the wells. The appropriate dilution of conjugate was also determined using standard ELISA checkerboard techniques. The plate was incubated at 25° C. for 1 hour. Excess unbound conjugate was removed by washing 6 times over a 10-15 minute period with TBST and tapped dry. 125 μl of tetramethylbenzidine (TMB) substrate solution was added to each well of the plate that was then incubated for 20 minutes in the dark at room temperature. The reaction was terminated by addition of 125 μl 0.2 M H2SO4 to each well. The absorbance was measured at 450 nm using a microtitre plate reader. In order to determine the specificity of the competitive ELISAs, standard solutions of a range of structurally similar compounds were prepared in TBST. Using calibration curves generated from these compounds (0-40 ng/ml), the cross-reactivity was determined.

[6] = system: EMIT II Plus amphetamines assay; settings: tested at 5,000 ng/ml, Petrie et al 2013; cited from earlier work
[7] = system: 2C antibody (IgG fraction of antiserum raised to 2C-B-BSA); experiment: Competitive microtitre plate ELISA, 2C antibody (antiserum raised to 2C-B-BSA); type: binding; settings: for % Cross-Reactivity / IC50 (standard concentration which produces 50% inhibition of maximal signal): 2C antibody; for % Cross-Reactivity: relative to 2C-B = 100%, calibration curves 0-80 ng/ml; for IC50 (standard concentration which produces 50% inhibition of maximal signal): 2C-B standard, competitive ELISA
Method: The wells of an enhanced binding 96 well polystyrene microtitre plate were coated with IgG fraction of antiserum raised to 2C-B-BSA, diluted in 10 mM Tris, pH8.5 (125 μl/well). The appropriate antibody coating dilution was determined using standard ELISA checkerboard techniques. The plate was incubated overnight at 4° C., washed 4 times over 10 minutes with Tris buffered saline containing Tween 20 (TBST) and tapped dry. Standard solutions of 2CB were prepared in TBST at 0, 1.25, 2.5, 5, 10, 20, 40 & 80 ng/ml, and 50 μl of each was added to the appropriate wells. 75 μl of conjugate (Example 11) diluted in Tris buffer (pH 7.2) containing EDTA, D-mannitol, sucrose, thimerosal and BSA, was added to each of the wells. The appropriate dilution of conjugate was also determined using standard ELISA checkerboard techniques. The plate was incubated at 25° C. for 1 hour. Excess unbound conjugate was removed by washing 6 times over a 10-15 minute period with TBST and tapped dry. 125 μl of tetramethylbenzidine (TMB) substrate solution was added to each well of the plate that was then incubated for 20 minutes in the dark at room temperature. The reaction was terminated by addition of 125 μl 0.2 M H2SO4 to each well. The absorbance was measured at 450 nm using a microtitre plate reader. In order to determine the specificity of the competitive ELISAs, standard solutions of a range of structurally similar compounds were prepared in TBST. Using calibration curves generated from these compounds (0-80 ng/ml) percentage cross-reactivity was determined.

[8] = system: DO antibody 1 (IgG fraction of antiserum raised to DOB-BSA); experiment: Competitive microtitre plate ELISA, DO antibody 1 (antiserum raised to DOB-BSA); type: binding; settings: for % Cross-Reactivity: DO antibody 1, relative to DOB = 100%, calibration curves 0-40 ng/ml
Method: The appropriate antibody coating dilution was determined using standard ELISA checkerboard techniques. The plate was incubated for 2 hours at 37° C., washed 4 times over 10 minutes with Tris buffered saline containing Tween 20 (TBST) and tapped dry. […] The appropriate dilution of conjugate was also determined using standard ELISA checkerboard techniques. The plate was incubated at 25° C. for 1 hour. Excess unbound conjugate was removed by washing 6 times over a 10-15 minute period with TBST and tapped dry. 125 μl of tetramethylbenzidine (TMB) substrate solution was added to each well of the plate that was then incubated for 20 minutes in the dark at room temperature. The reaction was terminated by addition of 125 μl 0.2 M H2SO4 to each well. The absorbance was measured at 450 nm using a microtitre plate reader.

Row | SMILES | cross-reactivity [3] | cross-reactivity [4] | % Cross reactivity [5] [%] | cross-reactivity [6] | % Cross-Reactivity [7] [%] | % Cross-Reactivity [8] [%] | further results
1 | CCCC(C(=O)c1ccc2c(c1)OCO2)N1CCCC1 (racemic) [(±)-MDPV] |  |  |  |  |  |  | cross-reactivity [1]: 100%
2 | CNC(C)C(=O)c1ccc(C)cc1 (racemic) [(±)-mephedrone, mephedrone] |  |  |  |  |  |  | cross-reactivity [2]: 100%
3 | COc1cc(CC(C)N)c(OC)cc1Br (racemic) [DOB, 1-(4-bromo-2,5-dimethoxyphenyl)propan-2-amine] | does not show cross-reactivity | 8.5% | 100 | 39.1% | <1.0 | 100.0 | IC50 ([5]; DO antibody 2, competitive ELISA): IC50 - 0.437 ng/mL; % B/Bo ([8]; DOB 0.625 ng/ml): 64.5%; % B/Bo ([8]; DOB 1.25 ng/ml): 58.1%; % B/Bo ([8]; DOB 2.5 ng/ml): 46.3%; % B/Bo ([8]; DOB 5 ng/ml): 34.6%; % B/Bo ([8]; DOB 10 ng/ml): 27.5%; % B/Bo ([8]; DOB 20 ng/ml): 17.5%; % B/Bo ([8]; DOB 40 ng/ml): 11.5%
4 | COc1cc(CC(C)N)c(OC)cc1C (racemic) [DOM, 1-(2,5-dimethoxy-4-methylphenyl)propan-2-amine] | does not show cross-reactivity | 3.9% | 49 | 23.2% |  | 112.7 | 
5 | NCCc1ccccc1 [(+)-Phenethylamine] |  |  |  |  | <1.0 | <1.0 | binding of the antibody described in Table 4 ([7]; summary in words): not; binding of the antibody described in Table 2 ([8]; summary in words): not
6 | CC(N)Cc1ccccc1 (centres unmarked) [Amphetamine] |  |  |  |  |  | <1.0 | 
7 | CC(N)Cc1c2ccoc2c(Br)c2ccoc12 (centres unmarked) [Bromo DragonFly (HCl), 1-(4-Bromofuro[2,3-f][1]benzofuran-8-yl)propan-2-amine] |  |  | 96 |  |  |  | 
8 | COc1cc(CC(C)N)c(OC)cc1Cl (centres unmarked) [DOC, 4-chloro-2,5dimethoxyamphetamine] |  |  | 47 |  |  |  | 
9 | CCc1cc(OC)c(CC(C)N)cc1OC (centres unmarked) [DOET] | does not show cross-reactivity | 4.8% | 50 | 18.8% |  |  | 
10 | COc1cc(CC(C)N)c(OC)cc1I.Cl (centres unmarked) [DOI HCl] |  |  | 73 |  |  |  | 
11 | COc1cc([N+](=O)[O-])c(OC)cc1CC(C)N (centres unmarked) [DON, 1-(2,5-dimethoxy-4-nitrophenyl)propan-2-amine] |  |  | 57 |  |  | 43.1 | 
12 | COc1cc(CCN)c(OC)cc1Br [Hapten 2C-B, 1-(4-bromo-2,5-dimethoxyphenyl)ethan-2-amine] | does not show cross-reactivity | 3.0% |  | 36.0% | 100.0 | <1.0 | % B/Bo ([7]; 2C-B 1.25 ng/ml): 86.8%; % B/Bo ([7]; 2C-B 2.5 ng/ml): 79.2%; % B/Bo ([7]; 2C-B 5 ng/ml): 69.2%; % B/Bo ([7]; 2C-B 10 ng/ml): 59.5%; % B/Bo ([7]; 2C-B 20 ng/ml): 53.5%; % B/Bo ([7]; 2C-B 40 ng/ml): 44.6%; % B/Bo ([7]; 2C-B 80 ng/ml): 38.1%; IC50 (standard concentration which produces 50% inhibition of maximal signal) [7]: 0.024618 µg/mL; IC50 (standard concentration which produces 50% inhibition of maximal signal) ([7]; listed as 2CB): is 24.6 ng/ml).
13 | COc1cc(CCN)c(OC)cc1Cl [Hapten 2C-C, 1-(4-chloro-2,5-dimethoxyphenyl)ethan-2-amine] |  |  |  |  | 148.6 | <1.0 | 
14 | COc1cc(CCN)c(OC)cc1C#N [Hapten 2C-CN, 1-(4-cyano-2,5-dimethoxyphenyl)ethan-2-amine] |  |  |  |  | 66.8 | <1.0 | 
15 | COc1cc(CCN)c(OC)cc1C [Hapten 2C-D, 1-(2,5-dimethoxy4-methylphenyl)ethan-2-amine] |  |  |  |  | 308.3 | <1.0 | 
16 | CCc1cc(OC)c(CCN)cc1OC [Hapten 2C-E, 1-(2,5-dimethoxy-4-ethylphenyl)ethan-2-amine] |  |  |  |  | 178.8 | <1.0 | 
17 | COc1ccc(OC)c(CCN)c1 [Hapten 2C-H] | does not show cross-reactivity | 3.1% |  | none |  |  | 
18 | COc1cc(CCN)c(OC)cc1I [Hapten 2C-I, 1-(2,5-dimethoxy-4-iodophenyl)ethan-2-amine] | does not show cross-reactivity | none |  | 28.6% |  |  | 
19 | CCCc1cc(OC)c(CCN)cc1OC [Hapten 2C-P, 1-(2,5-dimethoxy-4-propylphenyl)ethan-2-amine] |  |  |  |  | 276.8 | <1.0 | 
20 | COc1cc(SC(C)C)c(OC)cc1CCN [Hapten 2C-T-4] | does not show cross-reactivity | 2.2% |  | none |  |  | 
21 | CN[C@@H](C)Cc1ccccc1 [Methamphetamine] |  |  |  |  |  | <1.0 | 
22 | COc1cc(OC)c(OC)cc1CC(C)N (centres unmarked) [TMA, 2,4,5-trimethoxyamphetamine] |  |  | 5 |  |  | 9.8 | 
